Key:
ACLY [1] = molecular target: T1, ACLY (Homo sapiens (Human), UniProt P53396); assay: InCell Pulse assay (permeate HEK293 cells, bind to and stabilize ACLY); format: cell-based; conditions: HEK293 cells transfected with pICP-ACLY(FL)-ePL; 1 hour at 37° C., 55° C. heat pulse 10 minutes; read-out: InCell Pulse IC50 GMean
Method: HEK293 cells transfected for 24 hours with pICP-ACLY(FL)-ePL (3 μg DNA per T25 flask) using FuGene HD (Promega Corp.) were harvested and cryopreserved. On the day of the assay, the frozen transfected cells were thawed at 37° C., and the storage medium (DMEM with 2 mM L-Glutamine, 10% FBS and a final concentration of DMSO 10%) was exchanged with assay medium (OptiMEM; Gibco™, ThermoFischer Scientific). Compounds were 3-fold serially diluted in DMSO over 11-point concentration range. 100 nL of the corresponding dilutions were spotted into the assay plate (Greiner AG; 384 Well, PP, Small Volume, Deep Well, Natural, cat. no. 784201) followed by the addition of 20 μL of cell suspension adjusted with assay medium to 7.5E4 cells/mL. Subsequently, the plates were sealed and incubated for 1 hour at 37° C. Afterwards, the plates were fixed upside down in a rack and incubated in a 55° C. water bath for 10 minutes. Following this heat pulse step, plates were allowed to reach room temperature for 10 minutes and centrifuged for a few seconds at 1000 rpm and room temperature. 25 μL EA detection solution (working solution: 0.0167× InCell EA Reagent, 0.15× InCell Dilution Buffer, 0.167× InCell Lysis Buffer; 0.667× InCell Substrate Reagent; InCell Hunter Detection kit; Eurofins DiscoverX; cat. no. 96-0079) were added to each well. Afterwards, 42 μL were transferred from the assay plate to the detection plate (Corning Inc., 384-well Low Flange Black Flat Bottom Polystyrene NBS Microplate, cat. no. 3575), followed by an incubation for 1 hour at room temperature, a centrifugation step for 1 minute at 1000 rpm and the detection of the luminescence signal using an EnVision microplate reader (Perkin Elmer Inc.). Concentration-response curve-fitting and IC50 determination was performed using Evotec's in-house evaluation software APlus with a four-parameter non-linear regression fit model. Data was normalized to 0.5% (final concentration) DMSO as low/negative control and 1 μM (final concentration) NDI-094311 as high/positive control.

ACLY [2] = molecular target: T1, ACLY; assay: Human ACLY (hACLY) RF/MS activity assay; format: biochemical; conditions: 1 nM hACLY; 30 min pre-incubation; 15 μM Coenzyme A, 50 μM ATP, 50 μM citrate; CoA to Acetyl-CoA by RF/MS; read-out: RFMS IC50 GMean
Method: Compounds of the disclosure were evaluated for their efficacy in inhibiting hACLY using rapid fire mass spectrometry (RF/MS).
The final reaction volume for each compound was 20 μl and consisted of buffer (50 mM Hepes pH 8.0, 10 mM MgCl2, 0.003% BSA, 0.01% Brij35, 50 mM NaCl, 4 mM DTT) and 1 nM hACLY, EV12992, PP6692) using Greiner, 384 well small volume, deep well plates (Cat #784201). A two-fold dilution series with a top concentration of 10 μM was used to record a concentration response curve. Both the substrate (CoA) and product (Acetyl-CoA) were quantified, and given a ratio. […] The final DMSO-concentration was 1% (v/v). Compounds were pre-incubated for 30 min with the buffered enzyme solution at RT (20° C.), and substrate solution was added (final concentrations: 15 μM Coenzyme A, 50 μM ATP and 50 μM citrate) to initiate the enzyme reaction. The enzyme reaction was incubated for additional 30 min at RT. The reaction was quenched upon addition of 40 μl of 5% Formic acid in H2O and centrifuged (4350 rpm at 20° C. for 10 min).
Product formation was quantified using a RF/MS-based method based on mass change of CoA (substrate) to Acetyl-CoA (product).

T1 sequence (P53396 whole entry): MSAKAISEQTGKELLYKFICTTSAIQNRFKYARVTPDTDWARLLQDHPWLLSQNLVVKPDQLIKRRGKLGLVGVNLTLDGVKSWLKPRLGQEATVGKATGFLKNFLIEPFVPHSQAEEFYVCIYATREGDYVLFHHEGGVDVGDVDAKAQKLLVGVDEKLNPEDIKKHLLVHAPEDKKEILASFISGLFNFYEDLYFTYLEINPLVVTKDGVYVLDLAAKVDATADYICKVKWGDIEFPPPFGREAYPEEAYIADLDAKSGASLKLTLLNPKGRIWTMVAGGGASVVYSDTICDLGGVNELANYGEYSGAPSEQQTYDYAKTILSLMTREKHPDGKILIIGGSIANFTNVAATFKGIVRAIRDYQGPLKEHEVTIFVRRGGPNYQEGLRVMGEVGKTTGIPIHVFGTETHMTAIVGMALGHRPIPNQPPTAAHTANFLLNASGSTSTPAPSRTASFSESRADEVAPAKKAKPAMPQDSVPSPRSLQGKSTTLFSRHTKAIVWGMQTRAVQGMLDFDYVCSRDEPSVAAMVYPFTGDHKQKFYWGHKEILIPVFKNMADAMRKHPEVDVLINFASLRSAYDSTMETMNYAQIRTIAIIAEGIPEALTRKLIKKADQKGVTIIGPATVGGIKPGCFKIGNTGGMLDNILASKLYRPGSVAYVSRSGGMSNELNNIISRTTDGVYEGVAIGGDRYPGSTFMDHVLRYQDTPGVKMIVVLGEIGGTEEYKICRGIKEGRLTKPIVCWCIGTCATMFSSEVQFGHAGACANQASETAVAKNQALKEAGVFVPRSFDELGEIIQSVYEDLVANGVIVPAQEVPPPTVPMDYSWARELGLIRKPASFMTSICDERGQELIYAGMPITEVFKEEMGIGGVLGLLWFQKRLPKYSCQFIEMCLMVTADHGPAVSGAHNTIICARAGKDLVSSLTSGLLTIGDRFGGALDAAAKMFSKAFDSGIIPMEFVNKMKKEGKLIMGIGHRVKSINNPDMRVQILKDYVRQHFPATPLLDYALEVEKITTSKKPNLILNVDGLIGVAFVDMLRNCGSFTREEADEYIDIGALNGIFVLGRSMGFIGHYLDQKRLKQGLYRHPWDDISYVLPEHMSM

SMILES	IC50 (ACLY [1]) [µM]	IC50 (ACLY [2]) [µM]
O=C1OCC2Cc3cccc(c3O2)-c2cc(c(F)cc2F)NS(=O)(=O)c2cc1cc(Cl)c2O (single isomer, unassigned) [Compound 41, 15-chloro-21,23-difluoro-16-hydroxy-18,18-dioxo-8,11-dioxa-18λ6-thia-19-azapentacyclo[18.3.1.16,9.113,17.02,7]hexacosa-1(23),2(7),3,5,13,15,17(25),20(24),21-nonaen-12-one]	< 0.3	
CC1CCOC(=O)c2cc(Cl)c(O)c(c2)S(=O)(=O)Nc2cc(c(F)cc2F)-c2ccccc21 (single isomer, unassigned) [Compound 44, 15-chloro-21,23-difluoro-16-hydroxy-8-methyl-18,18-dioxo-11-oxa-18λ6-thia-19-azatetracyclo[18.3.1.113,17.02,7]pentacosa-1(23),2(7),3,5,13,15,17(25),20(24),21-nonaen-12-one]	1 to 50	0.1 to 10
O=C1NCCOc2ccccc2-c2cc3c(cc2F)CCN3C(=O)c2cc1ccc2O [Compound 11, 24-fluoro-16-hydroxy-8-oxa-11,19-diazapentacyclo[17.5.2.1^13,17.0^2,7.0^22,26]heptacosa-1(24),2,4,6,13,15,17(27),22,25-nonaene-12,18-dione]		≥ 10
O=C1NCCOc2ccccc2-c2cc(c(F)cc2F)NC(=O)c2cc1ccc2O [Compound 12, 21,23-difluoro-16-hydroxy-8-oxa-11,19-diazatetracyclo[18.3.1.1^13,17.0^2,7]pentacosa-1(23),2,4,6,13,15,17(25),20(24),21-nonaene-12,18-dione]	≥ 50	≥ 10
O=C1NCCOc2ccccc2-c2cc(c(F)cc2F)NCc2cc1ccc2O [Compound 13, 21,23-difluoro-16-hydroxy-8-oxa-11,19-diazatetracyclo[18.3.1.1^13,17.0^2,7]pentacosa-1(23),2,4,6,13,15,17(25),20(24),21-nonaen-12-one]	≥ 50	≥ 10
O=C1NCCOc2ccccc2-c2cc(c(F)cc2F)CS(=O)(=O)c2cc1cc(Cl)c2O [Compound 14, 15-chloro-21,23-difluoro-16-hydroxy-8-oxa-18lambda6-thia-11-azatetracyclo[18.3.1.1^13,17.0^2,7]pentacosa-1(24),2,4,6,13,15,17(25),20,22-nonaene-12,18,18-trione]	≥ 50	≥ 10
COc1c(Cl)cc2cc1S(=O)(=O)Nc1cc(ccc1O)-c1ccccc1OCCOC2=O [Compound 25, 15-chloro-21-hydroxy-16-methoxy-8,11-dioxa-18lambda6-thia-19-azatetracyclo[18.3.1.1^13,17.0^2,7]pentacosa-1(24),2,4,6,13,15,17(25),20,22-nonaene-12,18,18-trione]		≥ 10

Next, values leading:

IC50 (ACLY [1]) [µM]	IC50 (ACLY [2]) [µM]	SMILES
0.3 to 1	0.1 to 10	O=C1OCC2Cc3cccc(c3O2)-c2cc(c(F)cc2F)NS(=O)(=O)c2cc1cc(Cl)c2O (single isomer, unassigned) [Compound 40, 15-chloro-21,23-difluoro-16-hydroxy-18,18-dioxo-8,11-dioxa-18λ6-thia-19-azapentacyclo[18.3.1.16,9.113,17.02,7]hexacosa-1(23),2(7),3,5,13,15,17(25),20(24),21-nonaen-12-one]
< 0.3	0.02 to 0.1	CC1CCOC(=O)c2cc(Cl)c(O)c(c2)S(=O)(=O)Nc2cc(c(F)cc2F)-c2ccccc21 (single isomer, unassigned) [Compound 45, 15-chloro-21,23-difluoro-16-hydroxy-8-methyl-18,18-dioxo-11-oxa-18λ6-thia-19-azatetracyclo[18.3.1.113,17.02,7]pentacosa-1(23),2(7),3,5,13,15,17(25),20(24),21-nonaen-12-one]
	0.02 to 0.1	O=C1OCCOc2ccccc2-c2ccc(F)c(c2)NS(=O)(=O)c2cc1ncc2O [Compound 66, 21-fluoro-16-hydroxy-18,18-dioxo-8,11-dioxa-18λ6-thia-14,19-diazatetracyclo[18.3.1.113,17.02,7]pentacosa-1(24),2,4,6,13,15,17(25),20,22-nonaen-12-one]

Source: US20250289793A1, “MACROCYCLIC INHIBITORS OF ATP CITRATE LYASE” (Esperion Therapeutics, Inc., priority 2022, published 2025)
